Reference: US20240417410A1, “TRICYCLIC COMPOUNDS FOR THE TREATMENT OF CANCER” (Hoffmann-La Roche Inc., priority 2023, published 2024)

Legend:
AGS cells (KRAS G12D) = experiment: Cell viability assay (Cell Counting Kit-8, 3-day); format: cell-based, human; conditions: Homo sapiens, 72 h, 72 hrs incubation
Method: (§1) The purpose of this cellular assay was to determine the effects of test compounds on the proliferation of human cancer cell lines NCI-H358 (ATCC-CRL5807) cells, AGS (ATCC-CRL-1739) cells, SW620 (ATCC-CCL-227) over a 3-day treatment period by quantifying the amount of NADPH present at endpoint using Cell Counting Kit-8.
(§2) Cells were seeded at 5,000 cells/well (NCI-H358), 2,000 cells/well (AGS) 2,000 cells/well (SW620) in 96-well assay plates (Corning-3699) and incubated overnight. On the day of the assay, diluted compounds were then added in a final concentration of 0.5% DMSO. After 72 hrs incubation, a tenth of the volume of cell counting kit 8 (Dnjindo-CK04) was added into each well. Read the signal (OD450 minus OD650) using EnVision after 2 hrs incubation. IC50 was determined by fitting a 4-parameter sigmoidal concentration response model.

[1] = system: NCI-H358 cells (KRAS G12C); experiment: Cell viability assay (Cell Counting Kit-8, 3-day); format: cell-based, human; conditions: Homo sapiens, NCI-H358, 72 h, NCI-H358, 72 hrs incubation
Method: as §1, §2

SW620 cells (KRAS G12V) = experiment: Cell viability assay (Cell Counting Kit-8, 3-day); format: cell-based, human; conditions: Homo sapiens, SW-620; SW620, 72 hrs incubation
Method: as §1, §2

[2] = system: phosphorylation of ERK, KRAS G12C in NCI-H358 cells; experiment: pERK inhibition assay; format: cell-based; conditions: Homo sapiens, NCI-H358, 4 h
Method: (§3) This assay is to measure the ability of test compounds in inhibiting the phosphorylation of ERK, the downstream signaling of KRAS G12C in NCI-H358 cells, KRAS G12D in AGS cells, and KRAS G12V in SW620. NCI-H358 (ATCC-CRL5807) cells, AGS (ATCC-CRL-1739) cells, SW620 (ATCC-CCL-227) cells were all grown and maintained using RPMI-1640 medium (Thermo Fisher Scientific) with 10% fetal bovine serum and 1% penicillin/streptomycin. On the day prior to compound addition, cells were plated in tissue culture-treated 96 well plates (Corning-3699) at a density of 30,000 cell/well, 20,000 cell/well, 30,000 cell/well for NCI-H358, AGS and SW620 respectively, and allowed for attachment overnight. Diluted compounds were then added in a final concentration of 0.5% DMSO. After 4 hours of incubation, the medium was removed, 100 μL of 4% formaldehyde was added, and the assay plates were incubated at room temperature for 20 minutes. The plates were then washed once with phosphate buffered saline (PBS), and permeabilized with 100 μL of chilled methanol for 10 minutes. Non-specific antibody binding to the plates was blocked using 50 μL 1X BSA blocking buffer (Thermo-37520, 10-fold dilution by Phosphate-Buffered Saline Tween (PBST) for at least 1 hour at room temperature.
(§4) The amount of phosphor-ERK was determined using an antibody specific for phosphorylated form of ERK. Primary antibody (PERK, CST-4370, Cell Signaling Technology) was diluted 1:300 in blocking buffer, with 50 μL aliquoted to each well, and incubated overnight at 4° C. Cells was washed five times for 5 minutes with PBST. Secondary antibody (HRP-linked anti-rabbit IgG, CST-7074, Cell Signaling Technology) was diluted 1:1000 in blocking buffer, and 50 μL was added to each well and incubated 1-2 hrs at room temperature. Cells was washed […] for 5 minutes with PBST, 100 μL TMB ELISA substrate (abcam-ab171523) were added and gently shake for 20 minutes. 50 μL stop solution (abcam-ab 171529) were added, and then read the signal (OD450) by EnVision.
(§5) IC50 was determined by fitting a 4-parameter sigmoidal concentration response model.

[3] = system: phosphorylation of ERK, KRAS G12D in AGS cells; experiment: pERK inhibition assay; format: cell-based; conditions: Homo sapiens, AGS, 4 h
Method: as §3, §4, §5

[4] = system: phosphorylation of ERK, KRAS G12V in SW620; experiment: pERK inhibition assay; format: cell-based; conditions: Homo sapiens, SW-620, 4 h, SW620 cells
Method: as §3, §4, §5

| Structure (SMILES) | IC50 (AGS cells (KRAS G12D)) [nM] | IC50 [1] [nM] | IC50 (SW620 cells (KRAS G12V)) [nM] | IC50 [2] [nM] | IC50 [3] [nM] | IC50 [4] [nM] |
| --- | --- | --- | --- | --- | --- | --- |
| CO[C@@H](C)c1ncc(N2CCOCC2)cc1-c1c2c3cc(cc4c3n1CCC4)-c1csc(n1)C[C@H](NC(=O)[C@H]1C[C@@H]1c1ccccc1)C(=O)N1CCC[C@H](N1)C(=O)OCC(C)(C)C2 (atropisomer, axis not shown; (M)) [Example 46, (1S,2S)-N-[(7S,13S)-(20M)-20-[2-[(1S)-1-methoxyethyl]-5-morpholino-3-pyridyl]-17,17-dimethyl-8,14-dioxo-15-oxa-4-thia-9,21,30,31-tetrazahexacyclo[23.3.1.1^2,5.1^9,13.0^19,27.0^21,26]hentriaconta-1 (29),2,5 (31), 19,25,27-hexaen-7-yl]-2-phenyl-cyclopropanecarboxamide] | 32.2 | 8.1 | 2.4 | 0.9 | 9.1 | 1 |
| CO[C@@H](C)c1ncc(N2CCN(C)CC2)cc1-c1c2c3cc(cc4c3n1CCC4)-c1csc(n1)C[C@H](NC(=O)C1(C)CC1(F)F)C(=O)N1CCC[C@H](N1)C(=O)OCC(C)(C)C2 (stereo partly drawn) [Example 19, 2,2-difluoro-N-[(7S,13S)-(20M)-20-[2-[(1S)-1-methoxyethyl]-5-(4-methylpiperazin-1-yl)-3-pyridyl]-17,17-dimethyl-8,14-dioxo-15-oxa-4-thia-9,21,30,31-tetrazahexacyclo[23.3.1.1^2,5.1^9,13.0^19,27.0^21,26]hentriaconta-1 (28),2,5 (31),19,25 (29),26-hexaen-7-yl]-1-methyl-cyclopropanecarboxamide] | 98.7 | 17.1 | 3.8 | 1.9 | 20.7 | 2.7 |
| CO[C@@H](C)c1ncc(N2CCOCC2)cc1-c1c2c3cc(cc4c3n1CCCC4)-c1csc(n1)C[C@H](NC(=O)[C@H]1[C@H](C)[C@@H]1C)C(=O)N1CCC[C@H](N1)C(=O)OCC(C)(C)C2 [Example 126, (1r,2R,3S)-N-[(7S,13S)-(20M)-20-[2-[(1S)-1-methoxyethyl]-5-morpholino-3-pyridyl]-17,17-dimethyl-8,14-dioxo-15-oxa-4-thia-9,21,31,32-tetrazahexacyclo[24.3.1.1^2,5.1^9,13.0^19,28.0^19,28.0^21,27]dotriaconta-1 (29),2,5 (32),19,26 (30),27-hexaen-7-yl]-2,3-dimethyl-cyclopropanecarboxamide] | 757 | 40 | 7 | 5 | 50 | 3 |
| CO[C@@H](C)c1ncc(N2CCN(C)CC2)cc1-c1c2c3cc(cc4c3n1CCCCC4)-c1csc(n1)C[C@H](NC(=O)[C@H]1[C@H](C)[C@@H]1C)C(=O)N1CCC[C@H](N1)C(=O)OCC(C)(C)C2 [Example 127, (1r,2R,3S)-N-[(7S,13S)-(20M)-20-[2-[(1S)-1-methoxyethyl]-5-(4-methylpiperazin-1-yl)-3-pyridyl]-17,17-dimethyl-8,14-dioxo-15-oxa-4-thia-9,21,32,33-tetrazahexacyclo[25.3.1.1^2,5.1^9,13.0^19,29.0^21,28]tritriaconta-1 (30),2,5 (33),19,27 (31),28-hexaen-7-yl]-2,3-dimethyl-cyclopropanecarboxamide] | 1000 | 1000 | 27 | 30 | 697 | 30 |
| CO[C@@H](C)c1ncc(N2CCN(C)CC2)cc1-c1c2c3cc(cc4c3n1CCC4)-c1csc(n1)C[C@H](NC(=O)[C@H]1C[C@@H]1c1ccccc1F)C(=O)N1CCC[C@H](N1)C(=O)OCC(C)(C)C2 [Example 29, (1S,2S)-2-(2-fluorophenyl)-N-[(7S,13S)-(20M)-20-[2-[(1S)-1-methoxyethyl]-5-(4-methylpiperazin-1-yl)-3-pyridyl]-17,17-dimethyl-8,14-dioxo-15-oxa-4-thia-9,21,30,31-tetrazahexacyclo[23.3.1.1^2,5.1^9,13.0^19,27.0^21,26]hentriaconta-1 (28),2,5 (31),19,25 (29),26-hexaen-7-yl]cyclopropanecarboxamide] | 11.4 | 2.5 | 0.8 | < 0.6 | 1.6 | < 0.6 |
| CO[C@@H](C)c1ncc(N2CCOCC2)cc1-c1c2c3cc(cc4c3n1C(C)(C)CC4)-c1csc(n1)C[C@H](NC(=O)[C@H]1C[C@@H]1C)C(=O)N1CCC[C@H](N1)C(=O)OCC(C)(C)C2 [Example 125, (1S,2S)-N-[(7S,13S)-(20M)-20-[2-[(1S)-1-methoxyethyl]-5-morpholino-3-pyridyl]-17,17,22,22-tetramethyl-8,14-dioxo-15-oxa-4-thia-9,21,30,31-tetrazahexacyclo[23.3.1.1^2,5.1^9,13.0^19,27.0^21,26]hentriaconta-1 (29),2,5 (31),19,25,27-hexaen-7-yl]-2-methyl-cyclopropanecarboxamide] | 4720 | 1100 | 208 | 303 | 481 | 84 |
| CO[C@@H](C)c1ncc(N2CCOCC2)cc1-c1c2c3cc(cc4c3n1CC(F)(F)C4)-c1csc(n1)C[C@H](NC(=O)[C@H]1C[C@@H]1c1ccccc1)C(=O)N1CCC[C@H](N1)C(=O)OCC(C)(C)C2 (atropisomer, axis not shown; (M)) [Example 79, (1S,2S)-N-[(7S,13S)-23,23-difluoro-(20M)-20-[2-[(1S)-1-methoxyethyl]-5-morpholino-3-pyridyl]-17,17-dimethyl-8,14-dioxo-15-oxa-4-thia-9,21,30,31-tetrazahexacyclo[23.3.1.1^2,5.1^9,13.0^19,27.0^21,26]hentriaconta-1 (28),2,5 (31),19,25 (29),26-hexaen-7-yl]-2-phenyl-cyclopropanecarboxamide] | 57 | 13.2 | 3.2 | 1.6 | 16.2 | 1.4 |
| CO[C@@H](C)c1ncc(N2CCN(C)CC2)cc1-c1c2c3cc(cc4c3n1CC(F)(F)C4)-c1csc(n1)C[C@H](NC(=O)[C@H]1C[C@@H]1c1ccccc1)C(=O)N1CCC[C@H](N1)C(=O)OCC(C)(C)C2 (atropisomer, axis not shown; (M)) [Example 78] | 30.6 | 9.8 | 2.3 | 2 | 10.1 | 1.1 |
| CO[C@@H](C)c1ncc(N2CCOCC2)cc1-c1c2c3cc(cc4c3n1CCO4)-c1csc(n1)C[C@H](NC(=O)[C@H]1C[C@@H]1c1ccccc1)C(=O)N1CCC[C@H](N1)C(=O)OCC(C)(C)C2 (atropisomer, axis not shown; (M)) [Example 43, (1S,2S)-N-[(7S,13S)-(20M)-20-[2-[(1S)-1-methoxyethyl]-5-morpholino-3-pyridyl]-17,17-dimethyl-8,14-dioxo-15,24-dioxa-4-thia-9,21,30,31-tetrazahexacyclo[23.3.1.1^2,5.1^9,13.0^19,27.0^21,26]hentriaconta-1 (29),2,5 (31), 19,25,27-hexaen-7-yl]-2-phenyl-cyclopropanecarboxamide] | 11.9 | 3.6 | 0.9 | 0.7 | 3.8 | 0.3 |
